The values below come from paper PMC10719919 (ACS Omega, 2023).

Structures are written as SMILES.

Usually IC50 stands for the concentration that inhibits the measured activity by half. Low values mean higher potency, high ones lower potency. For orientation: Ki means a dissociation constant, usually derived from enzyme kinetics or from competition with a known ligand. Lower therefore signals higher affinity. Broadly, the viability is a read-out of living cells in per cent, often relative to untreated cells. Low readings indicate a greater loss of cells, high ones better survival.

One data set deals with AChE EC 3.1.1.7 (Electrophorus electricus, UniProt O42275). In words: biochemical.
Chain of AChE EC 3.1.1.7 (O42275 24-633): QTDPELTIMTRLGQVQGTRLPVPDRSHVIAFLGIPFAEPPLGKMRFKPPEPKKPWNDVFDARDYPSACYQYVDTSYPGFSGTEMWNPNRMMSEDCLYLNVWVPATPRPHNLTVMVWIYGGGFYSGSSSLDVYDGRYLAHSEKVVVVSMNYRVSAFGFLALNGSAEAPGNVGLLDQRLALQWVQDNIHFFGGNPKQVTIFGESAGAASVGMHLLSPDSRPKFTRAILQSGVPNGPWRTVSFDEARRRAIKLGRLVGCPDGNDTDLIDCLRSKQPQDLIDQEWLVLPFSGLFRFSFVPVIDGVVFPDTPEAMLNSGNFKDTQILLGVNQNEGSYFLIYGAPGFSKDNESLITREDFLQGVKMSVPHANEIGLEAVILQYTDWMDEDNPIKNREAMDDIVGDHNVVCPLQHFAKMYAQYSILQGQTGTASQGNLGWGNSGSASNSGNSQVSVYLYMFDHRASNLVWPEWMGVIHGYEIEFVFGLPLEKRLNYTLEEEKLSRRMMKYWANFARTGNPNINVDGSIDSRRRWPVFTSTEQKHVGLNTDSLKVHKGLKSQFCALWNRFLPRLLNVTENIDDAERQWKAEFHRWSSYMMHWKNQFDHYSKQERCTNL
The next data set has as its target AChE (Electrophorus electricus, UniProt O42275). Description: Enzyme kinetics of AChE inhibition. Type of data set: biochemical. The conditions noted are these: for Vmax (μmol/min)^−^1: Vmax of AChE, not apparent.
A short description of data set [1]: Cytotoxicity: human neutrophil viability assay. It counts as cell-based. The conditions noted are these: human.
The next data set deals with human neutrophils. In words: Cytotoxicity: human neutrophil viability assay. It counts as cell-based. As to conditions: 200 μg/mL.
In data set [2] the test system is rabbit jejunum. In words: Spasmolytic activity on spontaneous contraction of isolated rabbit jejunum. The conditions noted are these: spontaneously contracting isolated rabbit jejunum; Mean ± SEM, n = 3.
Data set [3] relates to rabbit jejunum. As to conditions: high K+ (80 mM)-contracted isolated rabbit jejunum; Mean ± SEM, n = 3.

Chain of AChE (O42275 24-633): as above

`CCSc1nc2ccccc2n1Cc1nnc(-c2ccccc2Cl)o1` [Compound 23, 2-(2-Chlorophenyl)-5-((2-(ethylthio)-1H-benzo[d]imidazole-1-yl)methyl)-1,3,4-oxadiazole] yielded an IC50 at AChE EC 3.1.1.7 of 118 ± 1.41 µM. At AChE, the affinity, expressed as Ki, was 45.1 ± 0.9 µM; the type of inhibition result is on record as “noncompetitive”; the “Vmax (μmol/min)^−^1” value is 5.0 (μmol/min)^−^1.

The compound `CCSc1nc2ccccc2n1Cc1nnc(-c2ccc(F)c(OC)c2)o1` [Compound 29, 2-((2-(Ethylthio)-1H-benzo[d]imidazole-1-yl)methyl)-5-(4-fluoro-3-methoxyphenyl)-1,3,4-oxadiazole] returned an IC50 on AChE EC 3.1.1.7 of 84.2 ± 1.99 µM. On AChE, the Ki is 34.2 ± 0.9 µM, the type of inhibition entry was “noncompetitive” and the “Vmax (μmol/min)^−^1” value is 5.0 (μmol/min)^−^1.

With `CCCCCCCc1nnc(Cn2c(SCC)nc3ccccc32)o1` [Compound 16, 2-((2-(Ethylthio)-1H-benzo[d]imidazole-1-yl)methyl)-5-heptyl-1,3,4-oxadiazole], the IC50 at AChE EC 3.1.1.7 was determined as 41.9 ± 0.67 µM. In addition, in data set [1], the viability at 30 min, 200 µg/ml came out at 96.1 ± 2.5%. Moreover, the “toxicity in the neutrophil viability assay (in words)” value with human neutrophils was “nontoxic”. Moreover, in the data set on rabbit jejunum [2], the “Effective dose (ED50), Spontaneous” value worked out at 0.12 ± 0.00 µg/mL. In the data set with rabbit jejunum [3], the “Effective dose (ED50), High K+” value turned out to be 0.22 ± 0.01 µg/mL. At AChE, affinity was put at a Ki of 18.3 ± 1.7 µM, the type of inhibition entry is “noncompetitive” and the “Vmax (μmol/min)^−^1” value is 5.0 (μmol/min)^−^1.

As to `CCSc1nc2ccccc2n1Cc1nnc(-c2ccc(C)o2)o1` [Compound 22, 2-((2-(Ethylthio)-1H-benzo[d]imidazole-1-yl)methyl)-5-(5-methylfuran-2-yl)-1,3,4-oxadiazole], at AChE EC 3.1.1.7, the IC50 came to 97.94 ± 0.79 µM. Also, at AChE, the affinity corresponds to a Ki of 32.1 ± 1.4 µM, the type of inhibition result is “noncompetitive” and the “Vmax (μmol/min)^−^1” value was 5.0 (μmol/min)^−^1.

In turn, `CCOc1cccc(-c2nnc(Cn3c(SCC)nc4ccccc43)o2)c1O` [Compound 19, 2-Ethoxy-6-(5-((2-(ethylthio)-1H-benzo[d]imidazole-1-yl)methyl)-1,3,4-oxadiazol-2-yl)phenol] displayed an IC50 against AChE EC 3.1.1.7 of 223.5 ± 0.96 µM. Further, at AChE, the affinity corresponds to a Ki of 93.3 ± 1.5 µM, the type of inhibition result was “noncompetitive” and the “Vmax (μmol/min)^−^1” value is 5.0 (μmol/min)^−^1.

As for `CCSc1nc2ccccc2n1Cc1nnc(-c2ccccc2O)o1` [Compound 31, 2-(5-((2-(Ethylthio)-1H-benzo[d]imidazole-1-yl)methyl)-1,3,4-oxadiazol-2-yl)phenol], at AChE EC 3.1.1.7, the IC50 came to 248.5 ± 1.81 µM. Further, at AChE, affinity was put at a Ki of 89.5 ± 1.5 µM, the type of inhibition entry is listed as “noncompetitive” and the “Vmax (μmol/min)^−^1” value is on record as 5.0 (μmol/min)^−^1.

On to `CCSc1nc2ccccc2n1Cc1nnc(-c2ccc([N+](=O)[O-])cc2)o1` [Compound 28, 2-((2-(Ethylthio)-1H-benzo[d]imidazole-1-yl)methyl)-5-(4-nitrophenyl)-1,3,4-oxadiazole], for which the IC50 on AChE EC 3.1.1.7 came to 750.9 ± 1.19 µM. Also, at AChE, the affinity corresponds to a Ki of 289.2 ± 0.8 µM, the type of inhibition result was “noncompetitive” and the “Vmax (μmol/min)^−^1” value is 5.0 (μmol/min)^−^1.

The compound `CCSc1nc2ccccc2n1Cc1nnc(-c2ccc(N(CC)CC)cc2)o1` [Compound 35, N,N-Diethyl-4-(5-((2-(ethylthio)-1H-benzo[d]imidazole-1-yl)methyl)-1,3,4-oxadiazol-2-yl)aniline] gave an IC50 on AChE EC 3.1.1.7 of 258.1 ± 1.02 µM. Moreover, at AChE, the inhibition constant (Ki) stood at 101.3 ± 0.3 µM, the type of inhibition result is given as “noncompetitive” and the “Vmax (μmol/min)^−^1” value is reported as 5.0 (μmol/min)^−^1.

Take `CCSc1nc2ccccc2n1Cc1nnc(-c2ccc(C)cc2)o1` [Compound 34, 2-((2-(Ethylthio)-1H-benzo[d]imidazole-1-yl)methyl)-5-(p-tolyl)-1,3,4-oxadiazole]: at AChE EC 3.1.1.7, inhibition was half-maximal at 377.4 ± 1.57 µM (IC50). Besides, at AChE, the affinity corresponds to a Ki of 135.2 ± 0.5 µM, the type of inhibition entry was “noncompetitive” and the “Vmax (μmol/min)^−^1” value is recorded as 5.0 (μmol/min)^−^1.

On to `CCSc1nc2ccccc2n1Cc1nnc(-c2ccccc2OC)o1` [Compound 21, 2-((2-(Ethylthio)-1H-benzo[d]imidazole-1-yl)methyl)-5-(2-methoxyphenyl)-1,3,4-oxadiazole], for which 291.9 ± 1.52 µM corresponded to half-maximal inhibition at AChE EC 3.1.1.7 (IC50). In addition, at AChE, the Ki turned out to be 112 ± 1.3 µM, the type of inhibition result is recorded as “noncompetitive” and the “Vmax (μmol/min)^−^1” value is 5.0 (μmol/min)^−^1.

`CCSc1nc2ccccc2n1Cc1nnc(-c2cc(OC)c(OC)c(OC)c2)o1` [Compound 27, 2-((2-(Ethylthio)-1H-benzo[d]imidazole-1-yl)methyl)-5-(3,4,5-trimethoxyphenyl)-1,3,4-oxadiazole] yielded an IC50 against AChE EC 3.1.1.7 of 1580.2 ± 0.76 µM. Moreover, at AChE, the Ki came out at 775.02 ± 0.5 µM, the type of inhibition entry is recorded as “noncompetitive” and the “Vmax (μmol/min)^−^1” value is 5.0 (μmol/min)^−^1.

In turn, `CCSc1nc2ccccc2n1Cc1nnc(-c2ccco2)o1` [Compound 17, 2-((2-(Ethylthio)-1H-benzo[d]imidazole-1-yl)methyl)-5-(furan-2-yl)-1,3,4-oxadiazole] yielded an IC50 against AChE EC 3.1.1.7 of 69.7 ± 0.95 µM. Further, the viability at 30 min, 200 µg/ml in data set [1] came to 100 ± 1%. In addition, the “toxicity in the neutrophil viability assay (in words)” value in the data set with human neutrophils is given as “nontoxic”. For the same compound, the “Effective dose (ED50), Spontaneous” value in the data set with rabbit jejunum [2] amounted to 0.13 ± 0.07 µg/mL. Further, the “Effective dose (ED50), High K+” value with rabbit jejunum [3] came to 0.26 ± 0.05 µg/mL. On AChE, the Ki was 24.3 ± 1.3 µM, the type of inhibition result was “noncompetitive” and the “Vmax (μmol/min)^−^1” value is on record as 5.0 (μmol/min)^−^1.

Compound `CCSc1nc2ccccc2n1Cc1nnc(-c2ccc(O)cc2)o1` [Compound 26, 4-(5-((2-(Ethylthio)-1H-benzo[d]imidazole-1-yl)methyl)-1,3,4-oxadiazol-2-yl)phenol] displayed an IC50 on AChE EC 3.1.1.7 of 93.2 ± 0.96 µM. On AChE, the affinity, expressed as Ki, was 30.5 ± 1.9 µM; the type of inhibition entry was “noncompetitive”; the “Vmax (μmol/min)^−^1” value is reported as 5.0 (μmol/min)^−^1.

`CCSc1nc2ccccc2n1Cc1nnc(-c2ccc(F)cc2)o1` [Compound 15, 2-((2-(Ethylthio)-1H-benzo[d]imidazole-1-yl)methyl)-5-(4-fluorophenyl)-1,3,4-oxadiazole] showed a half-inhibitory concentration (IC50) at AChE EC 3.1.1.7 of 130.5 ± 1.03 µM. On AChE, the Ki is 53.3 ± 1.4 µM, the type of inhibition result is “noncompetitive” and the “Vmax (μmol/min)^−^1” value is 5.0 (μmol/min)^−^1.

With `CCSc1nc2ccccc2n1Cc1nnc(-c2cccc(OC)c2O)o1` [Compound 18, 2-(5-((2-(Ethylthio)-1H-benzo[d]imidazole-1-yl)methyl)-1,3,4-oxadiazol-2-yl)-6-methoxyphenol], the IC50 against AChE EC 3.1.1.7 worked out at 248.8 ± 1.02 µM. Also, at AChE, the affinity corresponds to a Ki of 98.77 ± 0.7 µM, the type of inhibition entry was “noncompetitive” and the “Vmax (μmol/min)^−^1” value is reported as 5.0 (μmol/min)^−^1.

In the case of `CCSc1nc2ccccc2n1Cc1nnc(-c2ccc(Cl)cc2)o1` [Compound 25, 2-(4-Chlorophenyl)-5-((2-(ethylthio)-1H-benzo[d]imidazole-1-yl)methyl)-1,3,4-oxadiazole], the IC50 on AChE EC 3.1.1.7 amounted to 208.3 ± 1.39 µM. Besides, on AChE, the Ki came to 83.21 ± 0.6 µM, the type of inhibition result is listed as “noncompetitive” and the “Vmax (μmol/min)^−^1” value is 5.0 (μmol/min)^−^1.

In data set [1], `COc1ccc2c3c1O[C@H]1C[C@@H](O)C=C[C@@]31CCN(C)C2` [Galanthamine, reference compound] registered a viability at 30 min, 200 µg/ml of 96 ± 3.1%.

Compound `CCSc1nc2ccccc2n1Cc1nnc(-c2ccc(OC)cc2)o1` [Compound 20, 2-((2-(Ethylthio)-1H-benzo[d]imidazole-1-yl)methyl)-5-(4-methoxyphenyl)-1,3,4-oxadiazole] displayed an IC50 at AChE EC 3.1.1.7 of 380.1 ± 0.87 µM. Moreover, on AChE, the Ki turned out to be 147 ± 1.9 µM, the type of inhibition result is given as “noncompetitive” and the “Vmax (μmol/min)^−^1” value is given as 5.0 (μmol/min)^−^1.

For the compound `CCSc1nc2ccccc2n1Cc1nnc(-c2cccc(O)c2)o1` [Compound 32, 3-(5-((2-(Ethylthio)-1H-benzo[d]imidazole-1-yl)methyl)-1,3,4-oxadiazol-2-yl)phenol], at AChE EC 3.1.1.7, the IC50 stood at 400.7 ± 0.95 µM. Moreover, on AChE, the affinity, expressed as Ki, was 148.8 ± 0.2 µM; the type of inhibition entry was “noncompetitive”; the “Vmax (μmol/min)^−^1” value is on record as 5.0 (μmol/min)^−^1.

`CCSc1nc2ccccc2n1Cc1nnc(-c2ccc(O)cc2O)o1` [Compound 30, 4-(5-((2-(Ethylthio)-1H-benzo[d]imidazole-1-yl)methyl)-1,3,4-oxadiazol-2-yl)benzene-1,3-diol] showed an IC50 against AChE EC 3.1.1.7 of 1190 ± 0.65 µM. Also, on AChE, the Ki worked out at 456.71 ± 0.2 µM, the type of inhibition entry is recorded as “noncompetitive” and the “Vmax (μmol/min)^−^1” value is 5.0 (μmol/min)^−^1.

On AChE EC 3.1.1.7, `CCSc1nc2ccccc2n1Cc1nnc(-c2cccc(O)c2O)o1` [Compound 33, 3-(5-((2-(Ethylthio)-1H-benzo[d]imidazole-1-yl)methyl)-1,3,4-oxadiazol-2-yl)benzene-1,2-diol] displayed an IC50 of 320.6 ± 1.12 µM. On AChE, the affinity, expressed as Ki, was 121 ± 0.5 µM; the type of inhibition result was “noncompetitive”; the “Vmax (μmol/min)^−^1” value is reported as 5.0 (μmol/min)^−^1.

With `CCSc1nc2ccccc2n1Cc1nnc(-c2ccc(OC)c(OC)c2)o1` [Compound 24, 2-(3,4-Dimethoxyphenyl)-5-((2-(ethylthio)-1H-benzo[d]imidazole-1-yl)methyl)-1,3,4-oxadiazole], the IC50 on AChE EC 3.1.1.7 was 692 ± 0.99 µM. On AChE, the Ki was 284.2 ± 1.2 µM, the type of inhibition entry is given as “noncompetitive” and the “Vmax (μmol/min)^−^1” value is on record as 5.0 (μmol/min)^−^1.
